The structures appear in SMILES notation.

In test [1] the target is Bromodomain-containing protein 4 (Homo sapiens, UniProt O60885). Kind of test: Inhibition of GST-tagged BRD4 bromodomain (unknown origin) using biotinylated histone H4KAc peptide (1 to 21 residues) as substrate by HTRF assay.
The test system of a further test is HCT-116. Nature of the test: Antiproliferative activity against human HCT116 cells assessed as reduction in cell viability measured after 24 to 48 hrs by MTT assay. In kind it is functional, cell-based.

What is called IC50 is the concentration that gives 50% inhibition. As for `Cc1cc(C)cc(-c2nc3sc4c(c3c(=O)[nH]2)CCC4)c1`, the IC50 (in test [1]; with HCT-116) was greater than 10 µM each time.

With `O=c1[nH]c(-c2ccccc2)nc2sc3c(c12)CCN(Cc1ccccc1)C3`, the IC50 (in test [1]; with HCT-116) was greater than 10 µM in each case.

Turning to `CCN1CCc2c(sc3nc(-c4ccccc4)[nH]c(=O)c23)C1`, the IC50 (in test [1]; in the test on HCT-116) was greater than 10 µM throughout.

As to `CCN1CCc2c(sc3nc(-c4cc(C)c(O)c(C)c4)[nH]c(=O)c23)C1`, the IC50 stood at 5.6 µM in test [1] and 8.91 µM in the test with HCT-116.

Take `CN1CCc2c(sc3nc(-c4ccccc4)[nH]c(=O)c23)C1`: the half-inhibitory concentration (IC50) (in test [1]; in the test with HCT-116) was greater than 10 µM throughout.

`Cc1cc(-c2nc3sc4c(c3c(=O)[nH]2)CCC4)cc(C)c1O`: the half-inhibitory concentration (IC50) in test [1] worked out at 2.64 µM; with HCT-116, 4.85 µM.

As for `COC(=O)CN1CCc2c(sc3nc(-c4c(C)noc4C)[nH]c(=O)c23)C1`, the figures for the IC50 (in test [1]; in the test on HCT-116) were 6.68 µM and 16.2 µM, respectively.

Turning to `Cc1cc(C)cc(-c2nc3sc4c(c3c(=O)[nH]2)CCN(Cc2ccccc2)C4)c1`, the concentration for half-maximal inhibition (IC50) (in test [1]; in the test on HCT-116) was greater than 10 µM throughout.

With `CCN1CCc2c(sc3nc(-c4ccc(O)cc4)[nH]c(=O)c23)C1`, the IC50 (in test [1]; in the test on HCT-116) was greater than 10 µM throughout.

`Cc1cc(C)cc(-c2nc3sc4c(c3c(=O)[nH]2)CCCC4)c1`: the 50% inhibitory concentration (IC50) (in test [1]; with HCT-116) was greater than 10 µM throughout.

With `Oc1nc(-c2ccccc2)nc2sc3c(c12)CCCC3`, the half-maximal inhibitory concentration (IC50) (in test [1]; with HCT-116) was greater than 10 µM each time.

On to `Cc1noc(C)c1-c1nc2sc3c(c2c(=O)[nH]1)CCN(C)C3`, for which the IC50 in test [1] was determined as 2.41 µM; in the test on HCT-116, 9.77 µM.

On to `Cc1cc(C)cc(-c2nc3sc4c(c3c(=O)[nH]2)CCN(C)C4)c1`, for which the IC50 (in test [1]; with HCT-116) was greater than 10 µM each time.

For `Cc1cc(-c2nc3sc4c(c3c(=O)[nH]2)CCCC4)cc(C)c1O`, the half-inhibitory concentration (IC50) was determined as 1.81 µM in test [1] and 5.41 µM in the test with HCT-116.

`O=c1[nH]c(-c2ccccc2)nc2sc3c(c12)CCC3`: the concentration for half-maximal inhibition (IC50) (in test [1]; in the test with HCT-116) was greater than 10 µM throughout.

Consider `COC(=O)CCCN1CCc2c(sc3nc(-c4c(C)noc4C)[nH]c(=O)c23)C1`, for which the IC50 in test [1] amounted to 5.93 µM; in the test on HCT-116, 12.7 µM.

For the compound `O=c1[nH]c(-c2ccc(O)cc2)nc2sc3c(c12)CCC3`, the IC50 in test [1] is 9.28 µM; in the test with HCT-116, greater than 10 µM.

Consider `CCN1CCc2c(sc3nc(-c4cc(C)cc(C)c4)[nH]c(=O)c23)C1`, for which the IC50 (in test [1]; in the test on HCT-116) was greater than 10 µM each time.

As to `O=c1[nH]c(-c2ccc(O)cc2)nc2sc3c(c12)CCN(Cc1ccccc1)C3`, the IC50 (in test [1]; in the test on HCT-116) was greater than 10 µM each time.

With `CN1CCc2c(sc3nc(-c4ccc(O)cc4)[nH]c(=O)c23)C1`, the IC50 in test [1] was determined as 6.31 µM; in the test on HCT-116 it was 8.68 µM.

Take `Cc1cc(-c2nc3sc4c(c3c(=O)[nH]2)CCN(Cc2ccccc2)C4)cc(C)c1O`: the IC50 (in test [1]; in the test with HCT-116) was greater than 10 µM in each case.

In the case of `COC(=O)CCCCCN1CCc2c(sc3nc(-c4c(C)noc4C)[nH]c(=O)c23)C1`, the IC50 stood at 3.62 µM in test [1] and 17 µM in the test with HCT-116.

Turning to `O=c1[nH]c(-c2ccc(O)cc2)nc2sc3c(c12)CCCC3`, the half-maximal inhibitory concentration (IC50) amounted to 5.77 µM in test [1] and 9.73 µM with HCT-116.

The record behind these values is ChEMBL document CHEMBL4342471, “Discovery of Thieno[2,3-d]pyrimidine-Based Hydroxamic Acid Derivatives as Bromodomain-Containing Protein 4/Histone Deacetylase Dual Inhibitors Induce Autophagic Cell Death in Colorectal Carcinoma Cells” (J Med Chem, 2020).
